Counter-ions that a name gives are not always drawn. Bridge positions count the residues as written; N and C are the ends. Square brackets hold non-standard residues; d marks the D form. Peptide text beside a SMILES is read from it. * marks the point of attachment. X1 = CC[C@H](C)CCCCC(=O)*; Dab = NCC[C@H](N)C(=O)O
Columns and labels:
E. coli isolates = assay: Dose-response study, thigh infection model, summary over E. coli isolates; format: in vivo, Escherichia coli
Experimental: Experiments were carried out in the Erasmus Laboratory Animal Science Centre in Rotterdam, The Netherlands in accordance with the EU Animal Directive 2010/63/EU 2010 directive[14] (licence number AVD101002016702) as described before,[15] with approval of the institutional Animal Welfare Body. Outbred female CD-1 mice obtained from Charles River Germany, weighing 20–25 g, 7–8 weeks old, were used in the experiments. The mice were housed under standard conditions with drink and feed supplied ad libitum.
Mice were rendered neutropenic by intraperitoneal injection of cyclophosphamide of 150 and 100 mg/kg, 4 days and 1 day before infection, respectively. On the day of infection, an overnight culture of the bacteria was diluted in fresh CAMHB and incubated at 37°C for 1 or 2 h depending on the growth rate of the strain. After incubation the inoculum was diluted in CAMHB or saline for the thigh and lung infection model, respectively, in order to obtain approximately 5.0 × 10^7 cfu/mL. Mice were then infected intramuscularly in each thigh (thigh infection model) or intranasally under isoflurane anaesthesia (lung infection model), with 0.05 mL of inoculum containing approximately 2.5 × 10^6 bacteria. Analgesia was given in the form of buprenorphine directly after infection, every 12 h.
(§1) For dose–response studies, a 6 hourly dosing regimen of 1–32 mg/kg was studied in the thigh infection model. Mice were infected with E. coli […], 15, 51 or 71 or K. pneumoniae ATCC 43816, 17, 58 or 74.
(§2) Animals were humanely euthanized 24 h (t = 24 h) after the first dose, unless the welfare of the animals necessitated earlier termination, following animal welfare regulations. Excised thighs were transferred to a pre-cooled 14 mL polypropylene tube containing 2 mL of PBS and were homogenized using a T25 ULTRA-TURRAX (IKA-Werke GmbH & Co, Staufen, Germany). A 10-fold dilution series was prepared and 3 × 10 μL was plated per dilution. The following day, colonies were counted and the number of cfu per thigh was calculated.
The drug effect was determined by the difference between the log10 cfu values at t = 0 h (mean value of two mice) and t = 24 h (value of individual mice) expressed as Δlog10 cfu. The fAUC/MIC, fCmax/MIC and %fT>MIC were determined based on the simulated time–concentration profiles over 24 h as derived in MicLab 2.71 (MEDIMATICS, Maastricht, The Netherlands) using 200 points per dosing interval.
A sigmoid maximum effect (Emax) model was fitted to the PK/PD index versus Δlog10 cfu data by non-linear regression, and static or a 1 log or 2 log kill effect were determined using GraphPad Prism 8.0 (GraphPad, Inc., San Diego, CA, USA). A two-tailed unpaired t-test was performed in GraphPad Prism 8.0 to determine if there was a significant difference in the fAUC/MIC targets correlating with a static or a 1 log or 2 log decline, between E. coli and K. pneumoniae isolates.

[1] = Non-specific binding to ultrafiltration filter; format: physicochemical; conditions: LC-MS/MS
Experimental: The binding of polymyxin B to plasma proteins was determined via ultrafiltration. Polymyxins have a tendency to non-specifically bind to different kinds of material, including ultrafiltration filters. Thus, to correct for polymyxin B loss on the filter, an experiment was performed in which ultrafiltrated (UF) phosphate buffer was spiked with multiple polymyxin B concentrations (ranging from 0.75 to 8 mg/L) and subsequently concentrations were measured. […] Using this relationship, the non-specific binding (NSB) for each measured polymyxin B UF concentration was calculated. Correction for the measured polymyxin B UF concentration using this NSB value was according to the following formula: polymyxin B UF Corrected Concentration = Measured polymyxin B UF Concentration × (1−NSB).
Polymyxin B concentrations in plasma, BAL and ultrafiltrates were determined by a validated LC-MS/MS method,[18] with a lower limit of quantification (LOQ) of 0.2 mg/L for plasma and 0.05 mg/L for BAL fluid and ultrafiltrates. […] The residues were dissolved in 0.1 mL of 0.1% formic acid in water and analysed by LC-MS/MS. […] Polymyxin B was analysed on an XBridge C18 column (5 µm, 2.1 × 150 mm; Waters). […] Calibration curves of polymyxin B ranged from 0.1 to 10 mg/L for plasma and ultrafiltrates, and were quantified with a quadratic regression mode. […]

[2] = Tolerability of subcutaneous dosing in infected neutropenic mice; format: in vivo
Experimental: Dose-fractionation studies were performed for E. coli ATCC 25922 and K. pneumoniae 104 in the thigh infection model. Two hours after infection, treatment with polymyxin B was administered subcutaneously over 24 h at the following dosing regimens: 4–128 mg/kg q6h [total daily dose (TDD) 16–512 mg/kg]; 8–256 mg/kg q12h (TDD 16–512 mg/kg); 256–512 mg/kg q24h (TDD 256–512 mg/kg).
as §1, §2

[3] = two E. coli isolates in which 1 log kill was found

CC[C@H](C)CCCCC(=O)N[C@@H](CCN)C(=O)N[C@H](C(=O)N[C@@H](CCN)C(=O)N[C@H]1CCNC(=O)[C@H]([C@@H](C)O)NC(=O)[C@H](CCN)NC(=O)[C@H](CCN)NC(=O)[C@H](CC(C)C)NC(=O)[C@@H](Cc2ccccc2)NC(=O)[C@H](CCN)NC1=O)[C@@H](C)O [polymyxin B, Polymyxin B sulphate salt] (X1-[Dab]T[Dab][Dab][Dab][dF]L[Dab][Dab]T; lactam 4-C)
Isolates in which 1 log kill was found (E. coli isolates; E. coli isolates, mouse thigh infection): 2/4 | Target value of fAUC/MIC, static effect, average (E. coli isolates; average of four E. coli isolates, mouse thigh infection, q6h): 64.3 | Target value of fAUC/MIC, static effect, median (E. coli isolates; median of four E. coli isolates, mouse thigh infection, q6h): 63.5 | Target value of fAUC/MIC, static effect, range (E. coli isolates; range over four E. coli isolates, mouse thigh infection, q6h): 27.5–102.6 | fAUC/MIC for 1 log kill, median (E. coli isolates; [3]): 50.6 | fAUC/MIC for 1 log kill, range (E. coli isolates; [3]): 46.8–54.5 | Non-specific binding (NSB) ([1]; phosphate buffer spiked at 0.75 mg/L): 77% ± 8.3% | Non-specific binding (NSB) ([1]; phosphate buffer spiked at 8 mg/L): 20% ± 0.6% | Mice in which the last (fourth) administration was not tolerated ([2]; 32 mg/kg q6h (TDD 128 mg/kg) s.c.): 2/4 | Tolerability ([2]; doses >64 mg/kg s.c., dose fractionation studies, neutropenic infected mice): not tolerated

Source: PMC10377753, “Pharmacokinetic and pharmacodynamic properties of polymyxin B in Escherichia coli and Klebsiella pneumoniae murine infection models” (Journal of Antimicrobial Chemotherapy, 2023)
